US7915402B2, “Antioxidant inflammation modulators: oleanolic acid derivatives with saturation in the C-ring” (Reata Pharmaceuticals, Inc., priority 2008, dated 2011)
Like-named read-outs stand apart in the source and are kept apart here.

Legend:
NQO1 = assay: Nrf2 target gene induction, NQO1; type: cell-based, human; conditions: MDA-MB-435 cells, 250 nM; fold induction above DMSO control
Ferritin heavy chain = assay: Induction of ferritin heavy chain mRNA (qPCR); type: cell-based, human; conditions: MDA-MB-435 cells, 16 hours
Procedure: (§1) FIG. 24. Induction of Ferritin Heavy Chain. MDA-MB-435 human melanoma cells were treated with vehicle (DMSO) or the indicated compounds and concentrations for 16 hours. Ferritin heavy chain mRNA levels were quantified using qPCR and were normalized relative to a DMSO-treated sample run in parallel. Values are averages of duplicate wells.
(§2) Nrf2 target gene induction. MDA-MB-435 human melanoma cells were treated with vehicle (DMSO) or the indicated compounds and concentrations for 16 hours. HO-1, thioredoxin reductase-1 (TrxR1), γ-glutamylcysteine synthetase (γ-GCS), and ferritin heavy chain mRNA levels were quantified using qPCR and were normalized relative to a DMSO-treated sample run in parallel. Values are averages of duplicate wells. Primer sequences are as follows.

[1] = system: thioredoxin reductase-1 (TrxR1); assay: Nrf2 target gene induction, TrxR1 mRNA (qPCR); type: cell-based, human; conditions: MDA-MB-435 cells
Procedure: as §1, with “21.” for “24.”, “HO-1, TrxR1 and γ-GCS.” for “Ferritin Heavy Chain.”, “HO-1, thioredoxin reductase-1 (TrxR1), and γ-glutamylcysteine synthetase (γ-GCS)” for “Ferritin heavy chain”
as §1, with “22.” for “24.”, “TrxR1.” for “Ferritin Heavy Chain.”, “Thioredoxin reductase-1 (TrxR1)” for “Ferritin heavy chain”, “wells. Compounds 401, 402-19 and 402-53 are comparison compounds (see Example 1).” for “wells.”
as §2

mice = conditions: sesame oil, N=4
HO-1 = assay: Nrf2 target gene induction, HO-1 mRNA (qPCR); type: cell-based, human; conditions: MDA-MB-435 cells
Procedure: as §1, with “FIGS. 17-20.” for “FIG. 24.”, “HO-1.” for “Ferritin Heavy Chain.”, “HO-1” for “Ferritin heavy chain”
as §1, with “21.” for “24.”, “HO-1, TrxR1 and γ-GCS.” for “Ferritin Heavy Chain.”, “HO-1, thioredoxin reductase-1 (TrxR1), and γ-glutamylcysteine synthetase (γ-GCS)” for “Ferritin heavy chain”
as §2

[2] = system: γ-glutamylcysteine synthetase (γ-GCS); assay: Nrf2 target gene induction, γ-GCS mRNA (qPCR); type: cell-based, human; conditions: MDA-MB-435 cells
Procedure: as §1, with “21.” for “24.”, “HO-1, TrxR1 and γ-GCS.” for “Ferritin Heavy Chain.”, “HO-1, thioredoxin reductase-1 (TrxR1), and γ-glutamylcysteine synthetase (γ-GCS)” for “Ferritin heavy chain”
as §1, with “23.” for “24.”, “γ-GCS.” for “Ferritin Heavy Chain.”, “γ-glutamylcysteine synthetase (γ-GCS)” for “Ferritin heavy chain”
as §2

RAW264.7 macrophages = assay: Cell viability, WST-1 reagent; type: cell-based, mouse; conditions: Mus musculus, RAW264.7 (20 ng/ml IFNγ)
Procedure: (§3) FIGS. 1-8 and 32-34. Inhibition of NO Production. RAW264.7 macrophages were pre-treated with DMSO or drugs at various concentrations (nM) for 2 hours, then treated with 20 ng/ml IFNγ for 24 hours. NO concentration in media was determined using a Griess reagent system; cell viability was determined using WST-1 reagent.
(§4) Nitric Oxide production and cell viability. RAW264.7 macrophages were pre-treated with DMSO or drugs for 2 hours, then treated with recombinant mouse IFNγ (Sigma) for 24 hours. NO concentration in media was determined using the Griess reagent system (Promega). Cell viability was determined using WST-1 reagent (Roche).

iNOS = iNOS suppression, Western blot; type: cell-based, mouse; conditions: RAW264.7 (20 ng/ml IFNγ)
Sprague-Dawley rats = conditions: Sprague-Dawley rats, 1,500 mg/m^2/day for 14 days
[3] = system: IFNγ-induced NO production in RAW264.7 macrophages; assay: Suppression of IFNγ-induced NO production (Griess reagent); type: cell-based, mouse; conditions: Mus musculus; RAW264.7, 20 ng/ml IFNγ 24 h, 2 h pre-treatment
Procedure: as §3, §4

[4] = 400 nM, percent of induction observed for 402
[5] = 250 nM, fold induction above DMSO control

Compound: COC(=O)[C@]12CCC(C)(C)C[C@H]1[C@H]1C(=O)CC3[C@@]4(C)C=C(C#N)C(=O)C(C)(C)[C@@H]4CC[C@@]3(C)[C@]1(C)CC2 (stereo partly drawn) [Compound 63101, (4aS,6aR,6bR,8aR,12aR,14aR,14bS)-methyl 11-cyano-2,2,6a,6b,9,9,12a-heptamethyl-10,14-dioxo-1,2,3,4,4a,5,6,6a,6b,7,8,8a,9,10,12a,12b,13,14,14a,14b-icosahydropicene-4a-carboxylate]
- NQO1 induction (NQO1): 2 fold
- Ferritin heavy chain mRNA induction: concentration needed compared with unsaturated counterpart (402, 404) (Ferritin heavy chain): higher concentrations
- TrxR1 induction [1, 4]: 47%
- TrxR1 mRNA induction: concentration needed compared with unsaturated counterpart (402, 404) ([1]; 16 hours): higher concentrations
- Number of Deaths (mice; oral gavage QDx14, 10 mg/kg): 0
- Number of Deaths (mice; oral gavage QDx14, 50 mg/kg): 0
- Number of Deaths (mice; oral gavage QDx14, 100 mg/kg): 0
- Number of Deaths (mice; oral gavage QDx14, 250 mg/kg): 0
- HO-1 induction (HO-1; [5]): 3 fold
- HO-1 induction (HO-1; [4]): 4%
- γ-GCS induction [2, 5]: 5 fold
- γ-GCS induction [2, 4]: 53%
- γ-GCS mRNA induction: concentration needed compared with unsaturated counterpart (402, 404) ([2]; 16 hours): higher concentrations
- IC50 (RAW264.7 macrophages): 200 nM
- iNOS suppr. WB (iNOS): >90%
- highest dose without significant toxicity relative to the MTD of RTA 402 in this species (Sprague-Dawley rats): 50 fold
- IC50 [3]: ~12 nM
